Assay results as given in PubChem BioAssay (NCI).
Values joined by “and” are separate entries in the source; they are usually repeats but may differ in a detail not shown here. Equal entries are not always repeated.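 These data come from cells grown in 96-well plates and exposed to compound for 48 hours at five concentrations. GI50 = concentration required for 50% inhibition of growth. At the TGI there is no net growth.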

Key:
Assay in all cases: inhibition of tumour cell growth, NCI panel, 48 h
BT-549 breast = system: BT-549 breast
COLO 205 colon = system: COLO 205 colon
HCT-116 colon = system: HCT-116 colon
HT29 colon = system: HT29 colon
MDA-MB-435 = system: MDA-MB-435
NCI-H226 lung = system: NCI-H226 lung
SF-295 CNS = system: SF-295 CNS
SK-MEL-2 melanoma = system: SK-MEL-2 melanoma
SK-MEL-28 melanoma = system: SK-MEL-28 melanoma
UO-31 renal = system: UO-31 renal

SMILES | TGI (BT-549 breast) | TGI (COLO 205 colon) | TGI (HCT-116 colon) | TGI (HT29 colon) | TGI (MDA-MB-435) | TGI (NCI-H226 lung) | TGI (SF-295 CNS) | TGI (SK-MEL-2 melanoma) | TGI (SK-MEL-28 melanoma) | TGI (UO-31 renal) | GI50 (BT-549 breast) | GI50 (COLO 205 colon) | GI50 (HCT-116 colon) | GI50 (HT29 colon) | GI50 (MDA-MB-435) | GI50 (NCI-H226 lung) | GI50 (SF-295 CNS) | GI50 (SK-MEL-2 melanoma) | GI50 (SK-MEL-28 melanoma) | GI50 (UO-31 renal)
Cc1nc(-c2ccccc2)c(Cc2ccccc2O)c(=O)[nH]1 | > 100 µM | > 100 µM | > 100 µM | > 100 µM | > 100 µM | > 100 µM | > 100 µM | > 100 µM | > 100 µM | > 100 µM | – | – | – | – | – | – | – | – | – | –
O=S(=O)(Cc1ccc(Cl)cc1Cl)c1ccc(Cl)cc1 | > 75.4 µM | 5.52 µM | > 100 µM | 3.84 µM | 0.671 µM | > 100 µM | 10.8 µM | – | > 100 µM | > 53.3 µM | 1.54 µM | 0.548 µM | 0.471 µM | 0.338 µM | 0.13 µM | 4.52 µM | 0.495 µM | 0.326 µM | 1.97 µM | 1.03 µM
CCC1C(=O)OCc2c1cc1n(c2=O)Cc2cc3ccccc3nc2-1 (centres undefined) | > 59.5 µM | > 100 µM | > 100 µM | > 100 µM | > 100 µM | > 100 µM | > 33.7 µM | > 100 µM | > 100 µM | 11.7 µM | – | – | – | – | – | – | – | – | – | –
Clc1ccc(/C=C/c2cc(N3CCOCC3)c3cc(Cl)c(Cl)cc3n2)cc1 | > 40.2 µM | > 100 µM | > 100 µM | > 100 µM | > 100 µM | > 100 µM | > 100 µM | > 100 µM | > 100 µM | > 45.7 µM | 0.706 µM | > 100 µM | > 100 µM | > 100 µM | > 100 µM | > 100 µM | > 100 µM | > 100 µM | > 100 µM | 0.71 µM
S=C(N/N=C(/c1ccccc1)c1ccccn1)N1CCCCC1 | 2.53 µM | – | 1.6 µM and 1.56 µM | 2.17 µM and 2.44 µM | 1.98 µM and 1.85 µM | – | 1.75 µM and 2.11 µM | 2.01 µM and 2.36 µM | 2.55 µM and 2.82 µM | 2.01 µM and 1.54 µM | – | < 0.001 µM | < 0.001 µM | 0.0345 µM | – | 0.00148 µM | 0.188 µM | < 0.001 µM | 1.08 µM | 0.468 µM
Cc1ccc(NC(=O)Cc2ccc(/C=C/C(=O)c3ncc[nH]3)cc2)cc1 | > 25 µM | > 25 µM | 9.59 µM | 5.09 µM | > 25 µM | > 25 µM | > 25 µM | > 25 µM | > 25 µM | 14.2 µM | 6.42 µM | 7.27 µM | 3.28 µM | 0.955 µM | 5.68 µM | 9.59 µM | 7.9 µM | 18.1 µM | 11.5 µM | 3.01 µM
CCOC(=O)c1sc2ncn(Cc3cccc(Br)c3)c(=O)c2c1C | > 100 µM | > 100 µM | 93.8 µM | > 100 µM | > 100 µM | 85 µM | > 100 µM | 81 µM | > 100 µM | > 100 µM | 28.7 µM | 61.5 µM | 30.7 µM | 87.8 µM | 54.1 µM | 19.8 µM | 64.9 µM | 17.7 µM | 71.6 µM | 34.2 µM
O=c1c2c3c(sc2n2c(-c4cc(-c5ccccc5)no4)nnc2n1Cc1ccccc1)CCCC3 | 63.2 µM | > 40.7 µM | 24.5 µM | > 100 µM | > 91.9 µM | 58.3 µM | 31.7 µM | 23.5 µM | 76 µM | > 100 µM | 13.7 µM | 1.23 µM | 10.3 µM | 29.2 µM | 24.1 µM | 20 µM | 6.53 µM | 4 µM | 22.9 µM | 27.1 µM
CCCc1cc(O)c2c3c(c(=O)oc2c1)CN(C)CC3 | > 100 µM | > 100 µM | > 100 µM | > 100 µM | > 100 µM | > 100 µM | > 100 µM | > 100 µM | 67.4 µM | > 100 µM | 48.1 µM | 40.6 µM | 66.8 µM | 39.5 µM | 43.5 µM | > 100 µM | 28.3 µM | > 100 µM | 21.8 µM | 35.8 µM
N#Cc1cccc(OCc2nc(N)nc(N)c2-c2ccc(Cl)c(Cl)c2)c1 | > 100 µM | > 100 µM | > 100 µM | > 100 µM | > 100 µM | > 100 µM | 14.3 µM | > 100 µM | > 100 µM | > 100 µM | 3.01 µM | 5.3 µM | 0.472 µM | 0.797 µM | 0.486 µM | 7.44 µM | 0.46 µM | 6.68 µM | 14.5 µM | 3.23 µM
Nc1cc(C(=O)O)[nH]c(=O)n1 | > 100 µM | > 100 µM | > 100 µM | > 100 µM | > 100 µM | > 100 µM | > 100 µM | > 100 µM | > 100 µM | > 100 µM | – | – | – | – | – | – | – | – | – | –
Cc1cc2cc3cc(C)c(N(C)C)cc3[n+](C)c2cc1N(C)C | 9.62 µM | 17.5 µM | 20.7 µM | > 100 µM | 14.9 µM | 48 µM | 14 µM | > 100 µM | 8.53 µM | 70.7 µM | 2.55 µM | 2.51 µM | 2.55 µM | 2.46 µM | 3.1 µM | 5.68 µM | 2.53 µM | 4.57 µM | 2.64 µM | 5.05 µM
CC/C(=C(/c1ccc(OCCN(C)C)cc1)c1ccc(OC(=O)CCC(=O)c2c(C)[nH]c(/C=C3\N=C(c4ccc[nH]4)C=C3OC)c2C)cc1)c1ccccc1 | 20.4 µM | 7.24 µM | 3.26 µM | 11.1 µM | 10.2 µM | 22.5 µM | 9.06 µM | 6.2 µM | 12.4 µM | 5.05 µM | 3.5 µM | 1.9 µM | 0.792 µM | 0.438 µM | 2.56 µM | 3.54 µM | 2.61 µM | 2.42 µM | 2.89 µM | 1.71 µM
Oc1ccc(CN2CCC(N3CCOCC3)CC2)c2cccnc12 | > 100 µM | > 100 µM | > 100 µM | > 100 µM | > 100 µM | > 100 µM | > 100 µM | > 100 µM | > 100 µM | 63.8 µM | 31.9 µM | 49.8 µM | 34.4 µM | 100 µM | 36.2 µM | 41.4 µM | 39.8 µM | 52.8 µM | 37.6 µM | 14.7 µM
CN(CCCCCl)P(=O)(OCc1ccc([N+](=O)[O-])o1)OCC1OC(n2ccc(N)nc2=O)C(F)(F)C1O (centres undefined) | 88.2 µM | > 41.6 µM | > 100 µM | > 100 µM | > 50.9 µM | > 100 µM | > 54.6 µM | > 100 µM | > 100 µM | > 100 µM | 1.57 µM | 7.47 µM | 1.16 µM | 29.7 µM | 0.473 µM | 15.7 µM | 0.878 µM | > 80.3 µM | 43.1 µM | –
COc1cc2c3c(n(CCCN(CCN)CCCn4c5c(c6cc(OC)c(OC)cc6c4=O)C(=O)c4cc6c(cc4-5)OCO6)c(=O)c2cc1OC)-c1cc2c(cc1C3=O)OCO2 | > 79.3 µM | > 57 µM | 3.25 µM | > 37 µM | 23.2 µM | 2.76 µM | 6.16 µM | > 100 µM | > 100 µM | 8.18 µM | 5.08 µM | 0.645 µM | 0.837 µM | 2.52 µM | 2.22 µM | 0.449 µM | 0.36 µM | 21.1 µM | > 37.1 µM | 0.892 µM
CC(C)[C@H]1CC[C@H]2[C@@H](CC[C@H]3[C@](C)(CN)CCC[C@]23C)C1 | 37.5 µM | 3.27 µM | 3.09 µM | 3.3 µM | 4.69 µM | 23.5 µM | 3.87 µM | 5.99 µM | 30.8 µM | 4.21 µM | 15.6 µM | 1.74 µM | 1.72 µM | 1.65 µM | 2.13 µM | 4.99 µM | 1.83 µM | 2.57 µM | 16.8 µM | 1.76 µM
N#Cc1ncc(-c2ccc(C(F)(F)F)cc2)c(NCc2cc(C(F)(F)F)cc(C(F)(F)F)c2)n1 | > 100 µM | 4.57 µM | > 100 µM | > 100 µM | > 100 µM | > 100 µM | 29.1 µM | 7.15 µM | > 100 µM | 54.4 µM | 5.88 µM | 2.24 µM | 2.93 µM | 3.27 µM | 3.42 µM | 4.85 µM | 2.78 µM | 2.89 µM | 5.17 µM | 2.89 µM
